The record followed here is patent US9932340B2, “Substituted indoles” (AbbVie Inc., priority 2014, dated 2018).

This experiment has as its target SUV420H1 enzyme (Homo sapiens, UniProt Q4FZB7). Nature of the experiment: TR-FRET SAH SUV420H1 enzyme inhibition assay. The following applies: Histone Peptide H4(8-30)me1 and SAM, overnight at room temp, TR-FRET detection of SAH, read-out: TR-FRET SAH_SUV420H1 IC50. The class given is biochemical. A digest of the protocol:
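SUV420H1 (90 nM) preincubated 30 min with compound (3-fold dilutions, 50 to 0.00075 μM), then H4(8-30)me1 peptide 5 nM and SAM 4 nM added, overnight at room temp. SAH product detected by TR-FRET with Tb anti-SAH antibody and Oregon Green-SAH in RIPA buffer, 4 h; IC50 from Hill fit, asymptotes fixed 0-100%.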

Sequence of SUV420H1 enzyme (Q4FZB7 whole entry): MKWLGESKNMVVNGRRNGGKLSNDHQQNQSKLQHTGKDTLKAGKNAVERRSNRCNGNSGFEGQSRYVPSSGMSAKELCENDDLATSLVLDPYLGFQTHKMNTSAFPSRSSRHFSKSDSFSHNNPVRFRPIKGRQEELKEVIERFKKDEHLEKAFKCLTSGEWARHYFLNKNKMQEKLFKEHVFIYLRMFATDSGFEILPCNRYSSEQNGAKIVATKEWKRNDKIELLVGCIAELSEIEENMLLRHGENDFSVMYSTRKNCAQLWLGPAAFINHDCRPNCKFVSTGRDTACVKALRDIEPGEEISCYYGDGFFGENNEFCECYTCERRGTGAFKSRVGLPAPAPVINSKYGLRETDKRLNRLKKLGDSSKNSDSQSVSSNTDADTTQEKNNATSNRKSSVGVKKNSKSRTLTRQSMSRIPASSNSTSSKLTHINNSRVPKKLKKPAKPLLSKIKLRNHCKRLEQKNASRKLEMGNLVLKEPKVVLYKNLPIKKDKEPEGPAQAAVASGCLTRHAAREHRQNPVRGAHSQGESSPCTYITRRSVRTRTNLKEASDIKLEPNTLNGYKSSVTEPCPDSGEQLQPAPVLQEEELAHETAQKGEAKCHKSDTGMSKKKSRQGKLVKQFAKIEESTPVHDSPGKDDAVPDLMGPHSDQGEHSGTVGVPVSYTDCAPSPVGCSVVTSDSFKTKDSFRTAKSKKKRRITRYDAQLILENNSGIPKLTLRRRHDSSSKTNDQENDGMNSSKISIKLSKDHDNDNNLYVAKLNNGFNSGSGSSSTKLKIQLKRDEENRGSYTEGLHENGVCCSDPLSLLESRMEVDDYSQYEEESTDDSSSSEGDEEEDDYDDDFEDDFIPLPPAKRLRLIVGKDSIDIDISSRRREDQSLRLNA

In general, IC50 refers to the midpoint of a concentration-inhibition curve. Turning to `C=C(C)c1ccc2cc(CN)[nH]c2c1Cn1cnc2c(N)ncnc21` [Example 60, 9-{[2-(aminomethyl)-6-(prop-1-en-2-yl)-1H-indol-7-yl]methyl}-9H-purin-6-amine], the IC50 came out at 38.4 µM.
